From ChEMBL document CHEMBL1131970, “The design of (-)-(S)-2-nitrooxyethyl 1,4-dihydro-2,6-dimethyl-3-nitro-4-(2-trifluoromethylphenyl) pyridine-5-carboxylate: a cardioselective positive inotropic derivative of Bay K 8644” (Bioorg Med Chem Lett, 1999)

Key:
Type in all cases: functional
Cavia porcellus [1] = species on record: Cavia porcellus; experiment: In vitro for cardiac calcium channel (CC) agonist activity; Active; conditions: read-out: ED50 (the source's name)
Cavia porcellus [2] = species on record: Cavia porcellus; experiment: In vitro for smooth muscle calcium channel antagonist activity; conditions: Muscle tissue
Cavia porcellus [3] = species on record: Cavia porcellus; experiment: In vitro cardiac calcium channel (CC) agonist activity; conditions: read-out: ED50 (the source's name)
Cavia porcellus [4] = species on record: Cavia porcellus; experiment: In vitro release of nitric oxide by nitrite quantitation in the absence of N-acetyl-cysteamine by Griess reaction
Cavia porcellus [5] = species on record: Cavia porcellus; experiment: In vitro release of nitric oxide by nitrite quantitation in the presence of N-acetyl-cysteamine by Griess reaction

SMILES | EC50 (Cavia porcellus [1]) [µM] | IC50 (Cavia porcellus [2]) [µM] | EC50 (Cavia porcellus [3]) [µM] | Release (Cavia porcellus [4]) [%] | Release (Cavia porcellus [5]) [%]
CO/C(O)=C1\C(C)=NC(C)=C([N+](=O)[O-])[C@H]1c1ccccc1C(F)(F)F | 0.92 | 16 | – | – | –
CC1=NC(C)=C([N+](=O)[O-])C(c2ccccc2C(F)(F)F)/C1=C(\O)OCCO[N+](=O)[O-] (stereo not given) | – | – | – | 1.09 | 2.7
O=[N+]([O-])OCC(CO[N+](=O)[O-])O[N+](=O)[O-] [NITROGLYCERIN] | – | – | – | 0.18 | 5.3

The next lines start with results.

EC50 (Cavia porcellus [1]) [µM] | IC50 (Cavia porcellus [2]) [µM] | EC50 (Cavia porcellus [3]) [µM] | SMILES | Release (Cavia porcellus [4]) [%] | Release (Cavia porcellus [5]) [%]
– | 16 | 0.92 | CC1=NC(C)=C([N+](=O)[O-])[C@@H](c2ccccc2C(F)(F)F)/C1=C(\O)OCCO[N+](=O)[O-] | – | –
– | 0.079 | 16 | CC1=NC(C)=C([N+](=O)[O-])[C@H](c2ccccc2C(F)(F)F)/C1=C(\O)OCCO[N+](=O)[O-] | – | –
